Target: PCSK9 (Homo sapiens, UniProt Q8NBP7)
Experiment: BODIPY-LDL uptake assay in HepG2 cells
Assay type: cell-based
Conditions: 5 μg/ml PCSK9, BODIPY-LDL
Procedure: BODIPY-LDL Uptake Assay in HepG2 Cells.
An established assay for PCSK9 inhibition features uptake of fluorescently labeled LDL nanoparticles (BODIPY-LDL) by hepatocytes and uptake of the BODIPY-containing particles is maximized in the absence of PCSK9.
In the LDL uptake assay, HepG2 cells were seeded at a density of 6×10^4 cells/well in a 96-well plate. After 24 h, the test compounds at various concentrations were pre-incubated with 5 μg/ml PCSK9 in 0.2% DMSO for 60 min prior to the addition on to the cells. After 16 h the medium was removed and 1 μg/ml BODIPY-LDL (Invitrogen) in serum free media was added and incubated for 5 h. Then the cells were washed twice with 0.25% BSA in PBS. Then the fluorescence of the cells in PBS was measured using TECAN multimode reader (Excitation: 485 nm and Emission: 520 nm). The readings were taken in triplicate and the final values were normalized with the protein concentration from respective wells. The wells without test compound containing external PCSK9 is considered as zero uptake and the one without PCSK9 was considered as 100% uptake. The percentage increase in LDL uptake for the test compounds were calculated using these values.

Chain of PCSK9 (Q8NBP7 153-692): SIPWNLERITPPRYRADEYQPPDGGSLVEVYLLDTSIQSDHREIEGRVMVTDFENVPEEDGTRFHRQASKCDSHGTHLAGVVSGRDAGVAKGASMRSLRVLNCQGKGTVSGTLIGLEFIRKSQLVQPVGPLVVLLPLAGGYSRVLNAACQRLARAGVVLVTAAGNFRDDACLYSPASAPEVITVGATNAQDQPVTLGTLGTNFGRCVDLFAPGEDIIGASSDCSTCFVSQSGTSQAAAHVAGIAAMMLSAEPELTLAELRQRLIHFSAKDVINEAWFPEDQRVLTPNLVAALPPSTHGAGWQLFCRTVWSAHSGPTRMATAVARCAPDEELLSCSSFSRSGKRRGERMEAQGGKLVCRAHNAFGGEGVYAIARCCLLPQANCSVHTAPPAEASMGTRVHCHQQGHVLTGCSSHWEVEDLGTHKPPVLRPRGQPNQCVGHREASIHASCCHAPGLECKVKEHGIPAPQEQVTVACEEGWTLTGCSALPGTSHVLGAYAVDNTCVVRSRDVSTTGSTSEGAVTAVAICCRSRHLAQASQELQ

| Structure (SMILES) | % increase in LDL Uptake (1 μM test compound) [%] | % increase in LDL Uptake (10 μM test compound) [%] | % increase in LDL Uptake (30 μM test compound) [%] |
| --- | --- | --- | --- |
| O=C(Nc1ccc(C2(O)COC2)cc1)C1CCN(c2ccc(C(F)(F)F)cc2)CC1 [Example 3, N-(4-(3-hydroxyoxetan-3-yl)phenyl)-1-(4-(trifluoromethyl)phenyl) piperidine-4-carboxamide] | −2 | 39 | 34 |
| O=C(Nc1ccc(C2(O)COC2)cc1)N1CCC(c2ccc(C(F)(F)F)cc2)CC1 [Example 4, N-(4-(3-hydroxyoxetan-3-yl)phenyl)-4-(4-(trifluoromethyl)phenyl) piperidine-1-carboxamide] | 38 | 58 | 77 |
| COC1(c2ccc(NC(=O)N3CCC(c4ccc(C(F)(F)F)cc4)CC3)cc2)COC1 [Example 5, N-(4-(3-methoxyoxetan-3-yl)phenyl)-4-(4-(trifluoromethyl)phenyl) piperidine-1-carboxamide] | 41 | 76 | 72 |
| O=S(=O)(c1ccc(C2(O)COC2)cc1)N1CCN(c2ccc(C(F)(F)F)cc2)CC1 [Example 7, 3-(4-((4-(4-(trifluoromethyl)phenyl)piperazin-1-yl)sulfonyl)phenyl) oxetan-3-ol] | 28 | 63 | 128 |
| O=C(c1ccc(C2(OCCO)COC2)cc1)N1CC2CN(c3ccc(C(F)(F)F)cc3)CC2C1 (stereo not drawn) [Example 12, (4-(3-(2-hydroxyethoxy)oxetan-3-yl)phenyl)(5-(4-(trifluoromethyl)phenyl)hexahydropyrrolo[3,4-c]pyrrol-2(1H)-yl)methanone] | 21 | 32 | 34 |
| O=C(O)COC1(c2ccc(C(=O)N3CC4CN(c5ccc(C(F)(F)F)cc5)CC4C3)cc2)COC1 (stereo not drawn) [Example 13, 2-((3-(4-(5-(4-(trifluoromethyl)phenyl)octahydropyrrolo[3,4-c]pyrrole-2-carbonyl)phenyl)oxetan-3-yl)oxy)acetic acid] | 29 | 43 | 33 |
| O=C(c1ccc(C2(O)COC2)cc1)N1CCC(c2cc(F)cc(C(F)(F)F)c2)CC1 [Example 14, (4-(3-fluoro-5-(trifluoromethyl)phenyl)piperidin-1-yl)(4-(3-hydroxyoxetan-3-yl)phenyl)methanone] | 0 | 20 | 122 |
| OC1(c2ccc(-c3nc(-c4ccc(C(F)(F)F)c(F)c4)no3)cc2)COC1 [Example 16, 3-(4-(3-(3-fluoro-4-(trifluoromethyl)phenyl)-1,2,4-oxadiazol-5-yl)phenyl) oxetan-3-ol] | 38 | 22 | 19 |
| Cn1nc(-c2ccc(C(F)(F)F)cc2)c2c1CN(C(=O)c1ccc(C3(O)COC3)cc1)C2 [Example 20, (4-(3-hydroxyoxetan-3-yl)phenyl)(1-methyl-3-(4-(trifluoromethyl)phenyl)-4,6-dihydropyrrolo[3,4-c]pyrazol-5(1H)-yl)methanone] | 0 | 7 | 18 |
| O=C(c1ccc(C2(O)COC2)cc1)N1CCC(c2ccc(OC(F)(F)F)cc2)CC1 [Example 22, (4-(3-hydroxyoxetan-3-yl)phenyl)(4-(4-(trifluoromethoxy)phenyl)piperidin-1-yl)methanone] | 0 | 19 | 14 |
| COc1ccc(C2CCN(C(=O)c3ccc(C4(O)COC4)cc3)CC2)cc1Cl [Example 26, (4-(3-chloro-4-methoxyphenyl)piperidin-1-yl)(4-(3-hydroxyoxetan-3-yl)phenyl)methanone] | 15 | 21 | 33 |
